Results taken from PMC4890880 (ACS infectious diseases, 2016).
Read-outs that look alike come from different tables or passages of the source.

Tests used:
[1] = system: Plasmodium berghei (Pb-Luc) exoerythrocytic-stage parasites; conditions: for IC50: read-out: PbLuc_IC50
[2] = system: HepG2-A16-CD81EGFP cells; conditions: for IC50: read-out: Tox_IC50, HepG2 cytotoxicity
[3] = first series of columns, fraction of control
[4] = second series of columns (replicate), fraction of control
[5] = sheet 2nd round, maximal inhibition in dose response
[6] = first series of dose-response columns, fraction of control
[7] = first series, fraction of control
[8] = sheet 2nd round, Broad compounds, dose response
[9] = second series of dose-response columns, fraction of control
[10] = second series, fraction of control
[11] = 2nd round, maximal inhibition in dose series

SMILES: C[C@H](CO)N1C[C@H](C)[C@H](CN(C)S(=O)(=O)c2ccc(F)cc2)OCCCC[C@H](C)Oc2ccc(N(C)C)cc2C1=O [BRD-K59130783-001-01-1]
- normalized signal at concentration 0.000508053 [1, 3]: 0.8293
- normalized signal at concentration 0.00152416 [1, 3]: 0.8148
- normalized signal at concentration 0.00457247 [1, 3]: 0.8395
- normalized signal at concentration 0.0137174 [1, 3]: 0.9506
- normalized signal at concentration 0.0411523 [1, 3]: 0.8723
- normalized signal at concentration 0.123457 [1, 3]: 1.0641
- normalized signal at concentration 0.37037 [1, 3]: 0.9674
- normalized signal at concentration 1.11111 [1, 3]: 0.9129
- normalized signal at concentration 3.33333 [1, 3]: 0.9251
- normalized signal at concentration 10 [1, 3]: 0.7483
- IC50 ([1]; sheet 2nd round, Pb-Luc exoerythrocytic stage, 10-point dose response, top concentration 10): > 10 µM
- normalized signal at concentration 0.000508053 [1, 4]: 1.007
- normalized signal at concentration 0.00152416 [1, 4]: 0.9488
- normalized signal at concentration 0.00457247 [1, 4]: 0.9241
- normalized signal at concentration 0.0137174 [1, 4]: 0.9817
- normalized signal at concentration 0.0411523 [1, 4]: 0.8684
- normalized signal at concentration 0.123457 [1, 4]: 0.9044
- normalized signal at concentration 0.37037 [1, 4]: 1.051
- normalized signal at concentration 1.11111 [1, 4]: 0.8044
- normalized signal at concentration 3.33333 [1, 4]: 0.946
- normalized signal at concentration 10 [1, 4]: 0.5139
- PbLuc_max_inhibition (%) [1, 5]: 49%
- IC50 ([2]; sheet 2nd round): > 10 µM
- Tox_max_inhibition (%) [2, 5]: 7%

SMILES: COc1ccccc1S(=O)(=O)N(C)C[C@@H]1OCc2ccccc2-c2ccccc2C(=O)N([C@H](C)CO)C[C@@H]1C [BRD-K88384060-001-01-3]
- normalised signal at concentration 0.000508053 (first series) ([1]; concentration 0.000508053, first series): 0.762
- normalised signal at concentration 0.000508053 (second series) ([1]; concentration 0.000508053, second series): 0.8443
- normalised signal at concentration 0.00152416 (first series) ([1]; concentration 0.00152416, first series): 0.9256
- normalised signal at concentration 0.00152416 (second series) ([1]; concentration 0.00152416, second series): 0.8309
- normalised signal at concentration 0.00457247 (first series) ([1]; concentration 0.00457247, first series): 0.8786
- normalised signal at concentration 0.00457247 (second series) ([1]; concentration 0.00457247, second series): 0.8245
- normalised signal at concentration 0.0137174 (first series) ([1]; concentration 0.0137174, first series): 0.8282
- normalised signal at concentration 0.0137174 (second series) ([1]; concentration 0.0137174, second series): 0.879
- normalised signal at concentration 0.0411523 (first series) ([1]; concentration 0.0411523, first series): 0.9277
- normalised signal at concentration 0.0411523 (second series) ([1]; concentration 0.0411523, second series): 0.9618
- normalised signal at concentration 0.123457 (first series) ([1]; concentration 0.123457, first series): 0.8826
- normalised signal at concentration 0.123457 (second series) ([1]; concentration 0.123457, second series): 1.0267
- normalised signal at concentration 0.37037 (first series) ([1]; concentration 0.37037, first series): 0.7577
- normalised signal at concentration 0.37037 (second series) ([1]; concentration 0.37037, second series): 1.11
- normalised signal at concentration 1.11111 (first series) ([1]; concentration 1.11111, first series): 0.8863
- normalised signal at concentration 1.11111 (second series) ([1]; concentration 1.11111, second series): 0.7661
- normalised signal at concentration 3.33333 (first series) ([1]; concentration 3.33333, first series): 0.8204
- normalised signal at concentration 3.33333 (second series) ([1]; concentration 3.33333, second series): 0.8055
- normalised signal at concentration 10 (first series) ([1]; concentration 10, first series of dose columns): 0.8642
- normalised signal at concentration 10 (second series) ([1]; concentration 10, second series of dose columns): 0.7248
- IC50 ([1]; sheet "2nd round", Broad compounds, dose response top concentration 10): > 10 µM
- PbLuc_max_inhibition (%) ([1]; sheet "2nd round"): 28%
- IC50 ([2]; sheet "2nd round"): > 10 µM
- Tox_max_inhibition (%) ([2]; sheet "2nd round"): 2.77%

SMILES: C/C=C/c1ccc([C@H]2[C@@H](CO)N(CC3CCCCC3)[C@H]2CNC(C)C)cc1 [BRD-K63968422-001-01-5]
- normalized signal at concentration 10 [1, 6]: 0.94
- normalized signal at concentration 0.000508053 [1, 7]: 1.00
- normalized signal at concentration 0.00152416 [1, 7]: 1.12
- normalized signal at concentration 0.00457247 [1, 7]: 0.90
- normalized signal at concentration 0.0137174 [1, 7]: 1.14
- normalized signal at concentration 0.0411523 [1, 7]: 1.01
- normalized signal at concentration 0.123457 [1, 7]: 0.97
- normalized signal at concentration 0.37037 [1, 7]: 0.96
- normalized signal at concentration 1.11111 [1, 7]: 0.99
- normalized signal at concentration 3.33333 [1, 7]: 1.01
- IC50 [1, 8]: > 10 µM
- normalized signal at concentration 10 [1, 9]: 0.85
- normalized signal at concentration 0.000508053 [1, 10]: 0.78
- normalized signal at concentration 0.00152416 [1, 10]: 1.01
- normalized signal at concentration 0.00457247 [1, 10]: 1.16
- normalized signal at concentration 0.0137174 [1, 10]: 1.05
- normalized signal at concentration 0.0411523 [1, 10]: 1.10
- normalized signal at concentration 0.123457 [1, 10]: 1.05
- normalized signal at concentration 0.37037 [1, 10]: 1.24
- normalized signal at concentration 1.11111 [1, 10]: 1.02
- normalized signal at concentration 3.33333 [1, 10]: 1.10
- PbLuc_max_inhibition (%) [1, 5]: 22%
- IC50 ([2]; sheet 2nd round): > 10 µM
- Tox_max_inhibition (%) [2, 5]: 9%

SMILES: O=C(Cc1ccccn1)N1CC2(C1)[C@H](c1ccccc1)[C@H](CO)N2C(=O)c1ccncc1 [BRD-K71274172-001-01-0]
- PbLuc_max_inhibition (%) [1, 11]: 33%
- normalized signal at 0.000508053 (first series) ([1]; concentration 0.000508053, first replicate series, fraction of control): 0.9199
- normalized signal at 0.000508053 (second series) ([1]; concentration 0.000508053, second replicate series, fraction of control): 0.7398
- normalized signal at 0.00152416 (first series) ([1]; concentration 0.00152416, first replicate series, fraction of control): 1.024
- normalized signal at 0.00152416 (second series) ([1]; concentration 0.00152416, second replicate series, fraction of control): 0.9453
- normalized signal at 0.00457247 (first series) ([1]; concentration 0.00457247, first replicate series, fraction of control): 1.112
- normalized signal at 0.00457247 (second series) ([1]; concentration 0.00457247, second replicate series, fraction of control): 0.9743
- normalized signal at 0.0137174 (first series) ([1]; concentration 0.0137174, first replicate series, fraction of control): 0.9082
- normalized signal at 0.0137174 (second series) ([1]; concentration 0.0137174, second replicate series, fraction of control): 0.6716
- normalized signal at 0.0411523 (first series) ([1]; concentration 0.0411523, first replicate series, fraction of control): 1.078
- normalized signal at 0.0411523 (second series) ([1]; concentration 0.0411523, second replicate series, fraction of control): 0.9171
- normalized signal at 0.123457 (first series) ([1]; concentration 0.123457, first replicate series, fraction of control): 1.09
- normalized signal at 0.123457 (second series) ([1]; concentration 0.123457, second replicate series, fraction of control): 1.008
- normalized signal at 0.37037 (first series) ([1]; concentration 0.37037, first replicate series, fraction of control): 0.9519
- normalized signal at 0.37037 (second series) ([1]; concentration 0.37037, second replicate series, fraction of control): 0.8993
- normalized signal at 1.11111 (first series) ([1]; concentration 1.11111, first replicate series, fraction of control): 1.039
- normalized signal at 1.11111 (second series) ([1]; concentration 1.11111, second replicate series, fraction of control): 0.6979
- normalized signal at 3.33333 (first series) ([1]; concentration 3.33333, first replicate series, fraction of control): 0.9642
- normalized signal at 3.33333 (second series) ([1]; concentration 3.33333, second replicate series, fraction of control): 0.9744
- normalized signal at 10 (first series) ([1]; concentration 10, first replicate series, fraction of control): 1.127
- normalized signal at 10 (second series) ([1]; concentration 10, second replicate series, fraction of control): 0.8663
- IC50 ([1]; 2nd round, Broad DOS compounds, unit not printed (dose series head 10 to 0.000508053)): > 10 µM
- Tox_max_inhibition (%) [2, 11]: 8%
- IC50 ([2]; 2nd round, unit inferred): > 10 µM

SMILES: CN(C)C(=O)c1ccc(-c2ccc([C@@H]3[C@H]4CN(C(=O)CC5CC5)CC(=O)N4[C@H]3CO)cc2)cc1 [BRD-K27481961-001-01-1]
- normalized signal at concentration 10 [1, 6]: 1.04
- normalized signal at concentration 0.000508053 [1, 7]: 0.88
- normalized signal at concentration 0.00152416 [1, 7]: 0.98
- normalized signal at concentration 0.00457247 [1, 7]: 1.01
- normalized signal at concentration 0.0137174 [1, 7]: 0.77
- normalized signal at concentration 0.0411523 [1, 7]: 0.91
- normalized signal at concentration 0.123457 [1, 7]: 0.95
- normalized signal at concentration 0.37037 [1, 7]: 0.98
- normalized signal at concentration 1.11111 [1, 7]: 1.00
- normalized signal at concentration 3.33333 [1, 7]: 0.94
- IC50 [1, 8]: > 10 µM
- normalized signal at concentration 10 [1, 9]: 0.89
- normalized signal at concentration 0.000508053 [1, 10]: 1.05
- normalized signal at concentration 0.00152416 [1, 10]: 1.04
- normalized signal at concentration 0.00457247 [1, 10]: 0.89
- normalized signal at concentration 0.0137174 [1, 10]: 0.89
- normalized signal at concentration 0.0411523 [1, 10]: 0.96
- normalized signal at concentration 0.123457 [1, 10]: 1.12
- normalized signal at concentration 0.37037 [1, 10]: 1.12
- normalized signal at concentration 1.11111 [1, 10]: 0.98
- normalized signal at concentration 3.33333 [1, 10]: 1.20
- PbLuc_max_inhibition (%) [1, 5]: 23%
- IC50 ([2]; sheet 2nd round): > 10 µM
- Tox_max_inhibition (%) [2, 5]: 6%
